Columns and labels:
[1] = test system: nail growth; test: Nail growth in dogs (Example 6); type: in vivo, dog (female labradors); settings: 5% in drinking water, 45 days
Text: Rate of nail growth is an indication of the overall health of an animal. To determine the effect of methylsulfonylmethane on nail growth, two litter mate female labradors, age 8.5 months, were maintained in side by side straw bedded cages. Before any testing, the front paws of each dog were embedded in partially set plaster of paris, allowing the animals to exert full body weight, thereby obtaining good clear impressions of paw pads and nail length.
Each dog was fed Purina dog chow and water ad lib for 45 days. One of the dogs, (Animal A) had no ration change and the other (Animal B) was supplied only with water containing 5% of methylsulfonylmethane dissolved therein. After 45 days, plaster impressions of the front paws of each dog were again taken. Once the plaster had fully hardened the pre- and post-testing castings of each animal were compared. The straw bedding protected both animals from normal nail wear. On visual examination, the nails of Animal B, the animal receiving methylsulfonylmethane in its water, were obviously longer. Upon comparing the castings it was seen that Animal B had nails that averaged about 1/8 inch greater length than those of Animal A.

[2] = test system: eye; test: Inflammation of the eye following accidental injury (Example 14); type: in vivo, human; settings: 15% solution in isotonic saline
Text: A 15% solution of methylsulfonylmethane in isotonic saline was a soothing treatment for the eye following accidental injury due to particulate matter in the eye as dust or pollen.

[3] = test system: scarification of the right cheek pouch; test: Wound healing of the cheek pouch in hamsters (Example 17); type: in vivo; settings: 0.1 gm/kg methylsulfonylmethane alone or 100 mg ascorbic acid alone in feed; controls day 4 and 5
Protocol: Four sets of 5 hamsters were subject to scarification of the right cheek pouch, using standard methodology. One week prior to pouch injury, one set was started on a daily regimen of 0.1 gm/kg of methylsulfonylmethane in the diet of standard hamster feed, a second group was given 0.1 gm/kg of methylsulfonylmethane plus 100 mg of ascorbic acid in the same feed, a third group was given only 100 mg of ascorbic acid in the same feed, and the last group, fed only the feed, was held as control. Daily post-scarification examination was made to determine the rate of injury repair.

[4] = test system: Escherichia coli; test: In vitro antibacterial action; type: cell-based
Text: (§1) While not as potent or toxic to microbial populations as specific drug agents, by reason of its extremely low host systemic toxicity, methylsulfonylmethane contrasts sharply with present antiinfective therapeutants and methodology. It is doubtful if chemical resistance will develop with infective agents controlled by high, but safe, systemic levels of methylsulfonylmethane.

[5] = test system: Leuconostoc citrovorum; test: In vitro antibacterial action; type: cell-based
Text: as §1

[6] = test system: Salmonello typhimurium; test: In vitro antibacterial action; type: cell-based
Text: as §1

[7] = test system: Staphylococcus aureus; test: In vitro antibacterial action; type: cell-based
Text: as §1

[8] = test system: Streptococcus thermophilus; test: In vitro antibacterial action; type: cell-based
Text: as §1

[9] = test system: Trichomonas vaginalis; test: In vitro culture of Trichomonas vaginalis (Example 28(a)); type: cell-based, Trichomonas vaginalis Strain ATCC No. 30001
Protocol: Methylsulfonylmethane has highly variable toxicities for various nematodes. Based on this discovery, tests were conducted on several parasites adverse to the health of vertebrates
Strain ATCC No. 30001 was cultured in vitro employing diamonds tym medium. Methylsulfonylmethane was added thereto at levels varying from 5.5 to 109.3 mg/ml. At concentrations of 5.5 to 10.9 mg/ml, the methylsulfonylmethane had no effect on this protozoan.

[10] = test system: Trichomonas vaginalis; test: Treatment of Trichomonas vaginalis infection in subjects (Example 28(a)); type: in vivo, human
Text: Both had prior courses of therapy for this disorder without adequate response. […]
One subject was later reinfected by their sexual partner but the reinfection was cleared employing a daily douche of 5% aqueous methylsulfonylmethane for one week.

[11] = test system: arthritis; test: Canine arthritis and other sources of pain (Example 30); type: in vivo, dog
Text: In each case the methylsulfonylmethane was admixed with the animal's food just prior to feeding.
This animal, although owned by a veterinarian, had not responded to a variety of therapeutic regimens over the previous 12 months. Methylsulfonylmethane was given to this dog in its food at a level of 1.5 grams b.i.d. X 1 month.
It was mobile but walked with obvious difficulty and discomfort. The animals was refractory to both cortisone and phenylbutazone.
The animal had not responded to either cortisone nor phenylbutazone and its condition was deteriorating rapidly. Methylsulfonylmethane was included in its diet at 1 gm/day b.i.d. After one week, the dog appeared to be pain-free.

[12] = test system: pain in the mid-back region; test: Acute pain, comparison with codeine, urinary calculi, subject three (Example 32); type: in vivo, human; settings: 1.5 g in warm water, oral
Protocol: Methylsulfonylmethane was compared with codeine for the control of pain in subject three, a person who awakened in the early morning with excruciating pain in the mid-back region, so intense it was difficult to pin-point a specific region. […] Analgesic requirements were 1/2 grain codeine with aspirin every two hours. […] The intense pain returned. The subject was given 1.5 g of methylsulfonylmethane dissolved in 1/2 glass of warm water. At 0.5 hours after taking the methylsulfonylmethane, the pain had essentially disappeared. Methylsulfonylmethane (1.5 g/day) was continued until the afternoon of the third day, when X-ray confirmed that the calculi yet obstructed the ureter. Subject was switched again to codeine with aspirin (1/2 grain×2 hours). […] Methylsulfonylmethane was again administered (1.5 g×4 hours). On day 5 the calculi passed. Recovery was uneventful, requiring neither codeine, methylsulfonylmethane,nor a urinary tract antimicrobial.

[13] = test system: myositis ossificans generalis; test: Myositis ossificans generalis (Example 35); type: in vivo, human; settings: one teaspoon orally in split daily doses, nearly two years
Text: Their family belongs to a group of families each with a family member suffering from the disease. They have been on one teaspoon of methylsulfonylmethane orally, in split daily doses for nearly two years. […] No other child in the group is on methylsulfonylmethane and all are deteriorating physically. The disease cause is unknown but probably is a genetic/autoimmune type of disorder.

[14] = test system: mammary carcinoma; test: Resistance to DMBA-induced mammary carcinoma (Example 36); type: in vivo, female rats; settings: 2% by wt. in diet; Group 3; Group 2 (DMBA only) had cancers
Protocol: Forty-five female rats were stabilized to the laboratory and then divided into 3 groups of 15 each. Group 1 was designated control, Groups 2 and 3 were treated by topical application to the hair-free abdomen with a solution of the carcinogen dimethyl-benzanthracene (DMBA). All three groups were each fed a standard laboratory diet with water, ad lib. Group 3 also received in […] their standard diet 2% by wt. of methylsulfonylmethane.

[15] = cited from earlier work
[16] = test system: mammary tumors; settings: abdominal DMBA; in drinking water; tumors in control animals; cited from earlier work

CS(C)(=O)=O [methylsulfonylmethane]
greater average nail length vs Animal A [1]: about 1/8 | effect on the eye following accidental injury [2]: soothing | day on which the 36-hour combination healing result was matched [3]: three | in vitro antibacterial action [4]: weak | in vitro antibacterial action [5]: weak | in vitro antibacterial action [6]: weak | in vitro antibacterial action [7]: weak | in vitro antibacterial action [8]: weak | lethal concentrations ([9]; all higher concentrations tested, to 109.3 mg/ml): > 21.9 mg/mL | activity relative to metronidazole HCL ([9]; in vitro, based on this assay): about half | concentration with no effect on this protozoan ([9]; in vitro, diamonds tym medium): 5.5 to 10.9 mg/mL | outcome in subject's partner ([10]; 500 mg twice daily, two weeks): successfully treated | reinfection ([10]; daily douche of 5% aqueous, one week): cleared | benefit, Dog A ([11]; Dog A, 0.5 g/day b.i.d., 7 days): without apparent benefit | time to free mobility without evident discomfort nor ataxia, Dog A ([11]; Dog A, 1.5 g/day b.i.d.): ≤ 10 days | benefit, Dog B ([11]; Dog B, 1.5 grams b.i.d. X 1 month): no apparent benefit | mobility over the first month, Dog C ([11]; Dog C, 0.5 grams b.i.d.): gradual improvement | musculoskeletal restriction and discomfort in third month, Dog C ([11]; Dog C, 0.5 grams b.i.d.): neither musculoskelatal restriction nor discomfort | pain after one week, Dog D ([11]; Dog D, 1 gm/day b.i.d.): pain-free | state at over six months, Dog D ([11]; Dog D, 1 gm/day b.i.d.): apparently healthy and frisky, requiring no medication | time after which the pain had essentially disappeared [12]: 0.5 h | condition of the patient [13]: out of their wheelchair and is improving | disease process ([13]; child A. Z.): stopped | mammary carcinoma at 5 months post DMBA [14]: free of mammary carcinoma | motor activity ([15]; i.p.): reduces | body temperature ([15]; rats exposed to 5° C.): lowers | development of tumors [16]: did not develop tumors

— patent US4863748A, “Dietary products and uses comprising methylsulfonylmethane” (priority 1986, dated 1989)
